Measurements published in PMC12654037, “Norditerpene Natural Products from Subterranean Fungi with Anti-Parasitic Activity” (Microorganisms, 2025).
Where two headings read alike, the source gives them in different places.

Tests used:
HepG2 human hepatocytes = assay: HepG2 cytotoxicity assay (MTS); format: cell-based; settings: 48 h, mean +/- SD
Description: HepG2 cytotoxicity assay: Mammalian cell cytotoxicity was assessed in HepG2 human hepatocytes using an MTS 3-(4,5-dimethylthiazol-2-yl)-5-(3-carboxymethoxyphenyl)-2-(4-sulfophenyl)-2H-tetrazolium)-based cytotoxicity assay. For cytotoxicity testing, ∼2250 cells were seeded into each well of a 384-well microtiter plate and incubated for 24 h. Serial dilutions of the compounds were added in triplicate starting at 25 μM. Cells were further incubated for an additional 48 h at 37 °C in an atmosphere containing 5% CO2. Zero-growth control wells were incubated with 5% Triton X-100 for 5 min prior to MTS addition. Following the addition of MTS to all wells, the plates were incubated for an additional 4 h under the same environmental conditions before taking absorbance measurements. Absorbance values were recorded at 490 nm using a Synergy Neo2 multimode reader (BioTek), and values were normalized based on Triton X-100-lysed and no treatment controls. Samples were run in triplicate in each assay, and the experiments were repeated three times.

[1] = system: C. parvum asexual and sexual stages; assay: C. parvum asexual/sexual stage assay (4 h treatment windows); format: cell-based, Cryptosporidium parvum
Description: To determine -static versus -cidal activity, the infection assay was conducted as described, but infected cells were treated with compounds for 30 min up to 24 h. The compounds were removed after the designated times, and infection was quantified at 72 h post-infection. To determine the activity of the compounds against asexual and sexual stages of the parasite, compounds were added for 4 h windows at times corresponding to asexual or sexual development. Parasite proliferation was then determined at 72 h post-infection. For all assays, each sample was run in triplicate, and three biological replicates were performed.

HFF cells = assay: HFF cytotoxicity assay; format: cell-based
Description: HCT-8 and HFF cytotoxicity assays: Cytotoxicity of the compounds was determined against both confluent (the conditions of the infection assays) and growing HCT-8 and HFF host cells, as previously described. Cells were seeded into white-sided, clear-bottom 96-well plates and grown to either 40% or 100% confluency. Compounds were added to cells at various concentrations up to 100 µM in a final DMSO concentration of 0.5%. DMSO was run in parallel as a vehicle control. After 48 h, the viability of the cells was determined by either quantification of cellular ATP (Cell-Titer Glo cell viability assay; Promega, Madison WI, USA) or by MTT assay. Viability was determined 24 h after compound addition to HFF cells or 48 h after compound addition to HCT-8 cells or HepG2 cells. The percent cell growth was then calculated with the following formula: % Cell Growth = [RLUcompound/RLUDMSO] × 100. Samples were run in triplicate with two to three biological replicates.

[2] = system: C. parvum intracellular stages; assay: C. parvum immunofluorescence assay; format: cell-based, Cryptosporidium parvum; settings: 7.5 µM, 20 h
Description: C. parvum and T. gondii immunofluorescence assays (IFAs): IFAs were conducted as previously described with modifications. For C. parvum IFAs, HCT-8 cells were seeded on 4-well chamber cell culture glass slides (CELLTREAT Scientific Product, Pepperell, MA, USA). At confluency, the cell monolayers were infected with 5 × 10^5 wild-type (WT) C. parvum oocysts prepared as previously described. Slides were spun at 1000 rpm for 3 min to allow oocysts to have full contact with the cell monolayers. At 4 hpi, 7.5 µM oidiolactone A or DMSO control, diluted in medium containing 0.6% taurocholic acid, was added to the infected cells for 20 h. At 24 hpi, the slides were fixed with 4% paraformaldehyde and permeabilized with 0.25% Triton-X. The slides were then blocked with 10% goat serum in 1x PBS. C. parvum intracellular stages were visualized with Sporo-glo (Waterborne inc., New Orleans, LA, USA). The slides were mounted using VECTASHIELD® PLUS Antifade Mounting Medium with DAPI (Vector Laboratories, Inc., Newark CA, USA). Representative images of the samples were taken using the Nikon AX R confocal microscope and Nikon Elements acquisition software. Image processing was performed using Fiji v1.54p.

HuF fibroblast cell line = settings: cited from earlier work
in vitro = in vitro ADME; settings: plasma
Description: Plasma stability assay. The plasma stability assay was performed in duplicate by incubating each selected compound (1 µmol/L final concentration) in normal mouse (CD-1) or human plasma (Innovative Research, Novi, MI, USA) at 37 °C.

T. gondii = T. gondii growth inhibition assay (TgRH-Luc:GFP-infected HFF cells); format: cell-based; settings: Toxoplasma gondii, 10 µM to 156 nM, Figure 2E
Description: T. gondii growth inhibition assays: The T. gondii inhibition assay was described previously. Briefly, HFF cells were seeded onto white-sided, clear-bottom 96 well plates, grown to confluence, and then 5000 TgRH-Luc:GFP parasites were added to each well. At 24 hpi, compounds or DMSO were added. The growth of the parasites was determined by relative luminescence at 48 hpi using Promega Bright-Glo (Promega, Madison, WI, USA) substrate. Plates were read, and the percent inhibition of parasite growth was calculated as described above. Determination of -static versus -cidal activity was conducted as indicated above, with parasite growth quantified after 48 h of infection. Each sample was run in triplicate, and each experiment was repeated three times.

## CO[C@H]1OC(=O)C=C2[C@@]13O[C@@H]3[C@H]1OC(=O)[C@@]3(C)CCC[C@@]2(C)[C@@H]13 [compound 1, oidiolactone A]
HepG2 human hepatocytes
  TC50 HepG2: > 25 µM
[1]; 7.5 μM, 4 h intervals
  activity against gamete stages: no activity
[1]; Cryptosporidium parvum, 4 h intervals post-infection, read 72 h, read-out: inhibition of parasites in asexual stage and transition to sexual stages
  inhibition at 7.5 µM: 20 to 75%
HFF cells; confluent
  TC50 HFF (confluent): > 30 µM
HFF cells; confluent HFF, conditions of the infection assay, 24 h, cellular ATP
  toxicity to host cells (no toxicity up to): > 100 µM
HFF cells; sub-confluent
  cytotoxicity against sub-confluent HFF: no cytotoxicity observed
[2]
  abundance of treated C. parvum parasites by IFA: much lower abundances
HuF fibroblast cell line
  cytotoxicity against human fibroblast: no cytotoxicity observed
HuF fibroblast cell line; sub-confluent, ref Rusman et al. 2020 [25]
  TC50 HuF (sub-confluent): > 30 µM
In vitro; CD-1, mouse, 1 µmol/L, 37 °C, mean ± SD, read-out: Mouse Plasma Stability t½
  half-life at 1 µmol/L: 1.76 ± 0.0283 h
In vitro; CD-1, mouse, discussion, read-out: half-life in mouse blood plasma
  half-life at 1 µmol/L: < 2 h
In vitro; human, 37 °C, mean ± SD, read-out: Human Plasma Stability t½
  half-life at 1 µmol/L: 0.2917 ± 0.00167 h
T. gondii
  EC50: 1.63 µM
